Reference: patent US20230278981A1, “DICHLOROPHENOL HSD17B13 INHIBITORS AND USES THEREOF” (INIPHARM, INC., priority 2020, published 2023)

Target: HSD17B13 (Homo sapiens (Human), UniProt Q7Z5P4)
Experiment: LC/MS estrone detection assay: conversion of estradiol to estrone by HSD17B13
Format: biochemical
Conditions: 4 μM estradiol, 6 mM NAD+, 30 nM HSD17B13 enzyme (E. coli expressed His-tagged), 2 hours at 26.5° C.
How it was run: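 His-tagged E. coli-expressed HSD17B13 (30 nM) with 4 μM estradiol and 6 mM NAD+ in 1 M potassium phosphate pH 7.4, 0.5% DMSO, 2 h at 26.5° C. Estrone and estradiol quantified by LC-MS/MS after MeCN quench with D4-estrone internal standard; activity as % of uninhibited enzyme, IC50 by four-parameter fit, duplicates.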

Chain of HSD17B13 (Q7Z5P4 20-300): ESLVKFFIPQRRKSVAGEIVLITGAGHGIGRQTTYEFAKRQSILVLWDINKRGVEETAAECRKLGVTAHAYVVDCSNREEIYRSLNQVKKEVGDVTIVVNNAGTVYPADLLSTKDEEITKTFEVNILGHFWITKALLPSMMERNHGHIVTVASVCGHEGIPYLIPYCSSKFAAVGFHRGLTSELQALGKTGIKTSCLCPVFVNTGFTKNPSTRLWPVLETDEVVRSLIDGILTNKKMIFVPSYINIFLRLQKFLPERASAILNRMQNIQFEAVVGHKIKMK

Compound | IC50 [nM]
Cn1nc(NC(=O)c2cc(Cl)c(O)c(Cl)c2)c2c(=O)n(Cc3ccccc3OC(F)(F)F)cnc21 [Example 118, 3,5-dichloro-4-hydroxy-N-(1-methyl-4-oxo-5-(2-(trifluoromethoxy)benzyl)-4,5-dihydro-1H-pyrazolo[3,4-d]pyrimidin-3-yl)benzamide] | 500 to 1000
O=C(NCc1ccccc1OC(F)(F)F)C1CCCCN1C(=O)c1cc(Cl)c(O)c(Cl)n1 (centres unmarked) [Example 120, 1-(4,6-dichloro-5-hydroxypicolinoyl)-N-(2-(trifluoromethoxy)benzyl) piperidine-2-carboxamide] | 1000 to 10000
O=C(Nc1nccc2ncn(Cc3ccccc3OC(F)(F)F)c(=O)c12)c1cc(Cl)c(O)c(Cl)c1 [Example 124, 3,5-dichloro-4-hydroxy-N-(4-oxo-3-(2-(trifluoromethoxy)benzyl)-3,4-dihydropyrido[4,3-d]pyrimidin-5-yl)benzamide] | 1000 to 10000
O=C(NCc1ccccc1OC(F)(F)F)C1CCCN1C(=O)c1cc(Cl)c(O)c(Cl)n1 (centres unmarked) [Example 127, 1-(4,6-dichloro-5-hydroxypicolinoyl)-N-(2-(trifluoromethoxy)benzyl) pyrrolidine-2-carboxamide] | > 10000
O=C(NCc1ccccc1OC(F)(F)F)C1CCCN1C(=O)c1cc(Cl)c(O)c(Cl)c1 (centres unmarked) [Example 128, 1-(3,5-dichloro-4-hydroxybenzoyl)-N-(2-(trifluoromethoxy)benzyl) pyrrolidine-2-carboxamide] | > 10000
O=C(NC1CCCC1C(=O)NCc1ccccc1OC(F)(F)F)c1cc(Cl)c(O)c(Cl)n1 (centres unmarked) [Example 134, 4,6-dichloro-5-hydroxy-N-[2-({[2-(trifluoromethoxy)phenyl]methyl}carbamoyl)cyclopentyl] pyridine-2-carboxamide] | 500 to 1000
O=C(Nc1cccc2ncn(Cc3cccnc3F)c(=O)c12)c1cc(Cl)c(O)c(Cl)c1 [Example 137, 3,5-dichloro-N-{3-[(2-fluoropyridin-3-yl)methyl]-4-oxo-3,4-dihydroquinazolin-5-yl}-4-hydroxybenzamide] | 100 to 500
O=C(Nc1cccc2ncn(Cc3cccnc3F)c(=O)c12)c1cc(Cl)c(O)c(Cl)n1 [Example 138, 4,6-dichloro-N-{3-[(2-fluoropyridin-3-yl)methyl]-4-oxo-3,4-dihydroquinazolin-5-yl}-5-hydroxypyridine-2-carboxamide] | 100 to 500
O=C(Nc1cccc2ncn(Cc3ncccc3F)c(=O)c12)c1cc(Cl)c(O)c(Cl)n1 [Example 140, 4,6-dichloro-N-(3-((3-fluoropyridin-2-yl)methyl)-4-oxo-3,4-dihydroquinazolin-5-yl)-5-hydroxypicolinamide] | 100 to 500
Cc1ccc(NC(=O)c2cc(Cl)c(O)c(Cl)c2)c2c(=O)n(Cc3cccnc3C(F)(F)F)c(C)nc12 [Example 142, 3,5-dichloro-N-(2,8-dimethyl-4-oxo-3-((2-(trifluoromethyl)pyridin-3-yl)methyl)-3,4-dihydroquinazolin-5-yl)-4-hydroxybenzamide] | 100 to 500
O=C(N[C@H]1CCCC[C@@H]1C(=O)NCc1ccccc1OC(F)(F)F)c1cc(Cl)c(O)c(Cl)n1 [Example 144, 4,6-dichloro-5-hydroxy-N-((1S, 2S)-2-((2-(trifluoromethoxy)benzyl)carbamoyl)cyclohexyl)picolinamide] | > 10000
O=C(N[C@@H]1CCCC[C@H]1C(=O)NCc1ccccc1OC(F)(F)F)c1cc(Cl)c(O)c(Cl)n1 [Example 145, 4,6-dichloro-5-hydroxy-N-((1R, 2R)-2-((2-(trifluoromethoxy)benzyl)carbamoyl)cyclohexyl)picolinamide] | 1000 to 10000
Cc1ccc(NC(=O)c2cc(Cl)c(O)c(Cl)n2)c2c(=O)n(Cc3cccnc3C(F)(F)F)c(C)nc12 [Example 147, 4,6-dichloro-N-(2,8-dimethyl-4-oxo-3-((2-(trifluoromethyl)pyridin-3-yl)methyl)-3,4-dihydroquinazolin-5-yl)-5-hydroxypicolinamide] | 100 to 500

Further lines, results first:

IC50 [nM] | Compound
100 to 500 | Cn1c(=O)n(Cc2ccccc2OC(F)(F)F)c(=O)c2c(NC(=O)c3cc(Cl)c(O)c(Cl)n3)cccc21 [Example 113, 4,6-dichloro-5-hydroxy-N-(1-methyl-2,4-dioxo-3-(2-(trifluoromethoxy)benzyl)-1,2,3,4-tetrahydroquinazolin-5-yl)picolinamide]
100 to 500 | Cc1nsc(NC(=O)c2cc(Cl)c(O)c(Cl)n2)c1C(=O)NCc1ccccc1F [Example 114, 5-(4,6-dichloro-5-hydroxypicolinamido)-N-(2-fluorobenzyl)-3-methylisothiazole-4-carboxamide]
100 to 500 | Cc1nsc(NC(=O)c2cc(Cl)c(O)c(Cl)n2)c1C(=O)N[C@@H](C)c1ccccc1F [Example 115, (S)-5-(4,6-dichloro-5-hydroxypicolinamido)-N-(1-(2-fluorophenyl)ethyl)-3-methylisothiazole-4-carboxamide]
100 to 500 | O=C(Nc1cccc2nc(C(F)(F)F)n(C3CC3c3ccccc3)c(=O)c12)c1cc(Cl)c(O)c(Cl)c1 (centres unmarked) [Example 116, 3,5-dichloro-4-hydroxy-N-(4-oxo-3-(2-phenylcyclopropyl)-2-(trifluoromethyl)-3,4-dihydroquinazolin-5-yl)benzamide]
≤ 100 | Cn1nc(Cn2cnc3cccc(NC(=O)c4cc(Cl)c(O)c(Cl)c4)c3c2=O)c2ccccc21 [Example 117, 3,5-dichloro-4-hydroxy-N-(3-((1-methyl-1H-indazol-3-yl)methyl)-4-oxo-3,4-dihydroquinazolin-5-yl)benzamide]
100 to 500 | Cn1nc(NC(=O)c2cc(Cl)c(O)c(Cl)n2)c2c(=O)n(Cc3ccccc3OC(F)(F)F)cnc21 [Example 119, 4,6-dichloro-5-hydroxy-N-(1-methyl-4-oxo-5-(2-(trifluoromethoxy)benzyl)-4,5-dihydro-1H-pyrazolo[3,4-d]pyrimidin-3-yl)picolinamide]
100 to 500 | O=C(Nc1cccc2ncn([C@H]3CC[C@@H]3c3ccccc3)c(=O)c12)c1cc(Cl)c(O)c(Cl)c1 [Example 121, 3,5-dichloro-4-hydroxy-N-(4-oxo-3-((1S,2R)-2-phenylcyclobutyl)-3,4-dihydroquinazolin-5-yl)benzamide]
100 to 500 | O=C(Nc1cccc2ncn(Cc3cccnc3Cl)c(=O)c12)c1cc(Cl)c(O)c(Cl)c1 [Example 122, 3,5-dichloro-N-(3-((2-chloropyridin-3-yl)methyl)-4-oxo-3,4-dihydroquinazolin-5-yl)-4-hydroxybenzamide]
100 to 500 | O=C(Nc1cccc2ncn(C(CN3CCOCC3)c3ccccc3)c(=O)c12)c1cc(Cl)c(O)c(Cl)c1 (centres unmarked) [Example 123, 3,5-dichloro-4-hydroxy-N-(3-(2-morpholino-1-phenylethyl)-4-oxo-3,4-dihydroquinazolin-5-yl)benzamide]
100 to 500 | O=C(Nc1sc(C(F)(F)F)nc1C(=O)NCc1ccccc1OC(F)(F)F)c1cc(Cl)c(O)c(Cl)c1 [Example 125, 5-(3,5-dichloro-4-hydroxybenzamido)-N-(2-(trifluoromethoxy)benzyl)-2-(trifluoromethyl)thiazole-4-carboxamide]
≤ 100 | Cc1nsc(NC(=O)c2cc(Cl)c(O)c(Cl)c2)c1C(=O)N[C@@H](C)c1ccccc1F [Example 126, (S)-5-(3,5-dichloro-4-hydroxybenzamido)-N-(1-(2-fluorophenyl)ethyl)-3-methylisothiazole-4-carboxamide]
100 to 500 | O=C(Nc1cccc2ncn(Cc3cccnc3Cl)c(=O)c12)c1cc(Cl)c(O)c(Cl)n1 [Example 129, 4,6-dichloro-N-{3-[(2-chloropyridin-3-yl)methyl]-4. oxo-3,4-dihydroquinazolin-5-yl}-5-hydroxypyridine-2-carboxamide]
100 to 500 | O=C(Nc1cccc2ncn(Cc3ncccc3F)c(=O)c12)c1cc(Cl)c(O)c(Cl)c1 [Example 130, 3,5-dichloro-N-{3-[(3-fluoropyridin-2-yl)methyl]-4-oxo-3,4-dihydroquinazolin-5-yl}-4-hydroxybenzamide]
100 to 500 | Cc1ccc2ncn(Cc3ccccc3OC(F)(F)F)c(=O)c2c1NC(=O)c1cc(Cl)c(O)c(Cl)n1 [Example 131, 4,6-dichloro-5-hydroxy-N-(6-methyl-4-oxo-3-{[2-(trifluoromethoxy)phenyl]methyl}-3,4-dihydroquinazolin-5-yl)pyridine-2-carboxamide]
≤ 100 | O=C(Nc1ccc(F)c2ncn(Cc3ccccc3OC(F)(F)F)c(=O)c12)c1cc(Cl)c(O)c(Cl)c1 [Example 132, 3,5-dichloro-N-(8-fluoro-4-oxo-3-{[2-(trifluoromethoxy)phenyl]methyl}-3,4-dihydroquinazolin-5-yl)-4-hydroxybenzamide]
100 to 500 | O=C(Nc1ccc(F)c2ncn(Cc3ccccc3OC(F)(F)F)c(=O)c12)c1cc(Cl)c(O)c(Cl)n1 [Example 133, 4,6-dichloro-N-(8-fluoro-4-oxo-3-{[2-(trifluoromethoxy)phenyl]methyl}-3,4-dihydroquinazolin-5-yl)-5-hydroxypyridine-2-carboxamide]
≤ 100 | Cc1ccc(NC(=O)c2cc(Cl)c(O)c(Cl)n2)c2c(=O)n(Cc3ccccc3OC(F)(F)F)c(C)nc12 [Example 141, 4,6-dichloro-N-(2,8-dimethyl-4-oxo-3-(2-(trifluoromethoxy)benzyl)-3,4-dihydroquinazolin-5-yl)-5-hydroxypicolinamide]
≤ 100 | O=C(Nc1cccc2ncn(Cc3ncccc3Cl)c(=O)c12)c1cc(Cl)c(O)c(Cl)c1 [Example 143, 3,5-dichloro-N-(3-((3-chloropyridin-2-yl)methyl)-4-oxo-3,4-dihydroquinazolin-5-yl)-4-hydroxybenzamide]
≤ 100 | Cc1ccc(NC(=O)c2cc(Cl)c(O)c(Cl)c2)c2c(=O)n(Cc3ncccc3C(F)(F)F)c(C)nc12 [Example 146, 3,5-dichloro-N-(2,8-dimethyl-4-oxo-3-((3-(trifluoromethyl)pyridin-2-yl)methyl)-3,4-dihydroquinazolin-5-yl)-4-hydroxybenzamide]
